In ChEMBL document CHEMBL5154882, “Discovery of 4-Hydroxyquinazoline Derivatives as Small Molecular BET/PARP1 Inhibitors That Induce Defective Homologous Recombination and Lead to Synthetic Lethality for Triple-Negative Breast Cancer Therapy” (J Med Chem, 2022):
The source made the active and inactive calls. The calls are words filed in the database; no cut-off is given here.

Legend:
MDA-MB-231 [1] = experiment: Antiproliferative activity against human MDA-MB-231 cells assessed as reduction in cell viability incubated for 72 hrs by MTT assay; format: functional, cell-based; conditions: MDA-MB-231, 72 h
MDA-MB-468 [2] = experiment: Antiproliferative activity against human MDA-MB-468 cells assessed as reduction in cell viability incubated for 72 hrs by MTT assay; format: functional, cell-based; conditions: MDA-MB-468, 72 h
[3] = target: Bromodomain-containing protein 4 (Homo sapiens, UniProt O60885); experiment: Inhibition of BRD4 (unknown origin) at 1 uM relative to control
[4] = target: Poly [ADP-ribose] polymerase 1 (Homo sapiens, UniProt P09874); experiment: Inhibition of PARP1 (unknown origin) at 1 uM relative to control
Chain of Poly [ADP-ribose] polymerase 1 (P09874 whole entry): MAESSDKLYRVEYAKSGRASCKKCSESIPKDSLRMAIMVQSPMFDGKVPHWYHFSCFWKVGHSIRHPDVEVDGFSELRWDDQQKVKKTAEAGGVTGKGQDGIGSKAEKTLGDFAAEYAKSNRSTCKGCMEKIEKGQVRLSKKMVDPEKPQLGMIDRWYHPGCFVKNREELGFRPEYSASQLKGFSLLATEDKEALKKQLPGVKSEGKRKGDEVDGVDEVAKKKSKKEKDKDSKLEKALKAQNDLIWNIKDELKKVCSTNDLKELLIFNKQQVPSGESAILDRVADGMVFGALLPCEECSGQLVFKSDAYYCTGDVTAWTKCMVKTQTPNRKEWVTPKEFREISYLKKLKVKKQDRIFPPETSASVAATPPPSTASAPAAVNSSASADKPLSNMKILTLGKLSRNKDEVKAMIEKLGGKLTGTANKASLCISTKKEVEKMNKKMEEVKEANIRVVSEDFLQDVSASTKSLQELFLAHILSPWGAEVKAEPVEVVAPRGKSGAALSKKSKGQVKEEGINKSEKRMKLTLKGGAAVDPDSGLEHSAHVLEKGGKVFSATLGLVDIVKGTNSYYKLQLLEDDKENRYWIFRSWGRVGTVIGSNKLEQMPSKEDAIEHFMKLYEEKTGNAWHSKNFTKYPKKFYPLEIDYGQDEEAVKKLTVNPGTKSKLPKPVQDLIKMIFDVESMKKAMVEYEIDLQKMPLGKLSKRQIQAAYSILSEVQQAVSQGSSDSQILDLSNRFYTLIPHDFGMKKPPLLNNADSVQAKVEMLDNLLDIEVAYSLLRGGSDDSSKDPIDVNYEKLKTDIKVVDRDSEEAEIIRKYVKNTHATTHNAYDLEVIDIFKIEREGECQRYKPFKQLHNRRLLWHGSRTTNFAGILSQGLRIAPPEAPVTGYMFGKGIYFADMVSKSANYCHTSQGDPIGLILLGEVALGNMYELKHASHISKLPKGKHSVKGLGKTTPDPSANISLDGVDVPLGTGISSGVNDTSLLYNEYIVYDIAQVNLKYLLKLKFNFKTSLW

MDA-MB-468 [5] = experiment: Induction of DNA damage in human MDA-MB-468 cells assessed as up-regulation of gammaH2AX expression level at 3 uM by DAPI staining based immunofluorescence assay; format: functional, cell-based
MDA-MB-231 [6] = experiment: Induction of DNA damage in human MDA-MB-231 cells assessed as increase in tail DNA measured at 3 uM after 3 days by comet assay; format: functional, cell-based; conditions: time 3.0 day

Structure (SMILES) | IC50 (MDA-MB-231 [1]) [µM] | IC50 (MDA-MB-468 [2]) [µM] | inhibition [3] [%] | inhibition [4] [%] | Activity (MDA-MB-468 [5]) | Activity (MDA-MB-231 [6])
COc1cc(OC)c2c(=O)[nH]c(-c3ccc(Cc4n[nH]c(=O)c5ccccc45)c(OC)c3)nc2c1 | 27.7 | 25.3 | 51 | 35.3 |  | 
COc1ccc2nc(-c3ccc(Cc4n[nH]c(=O)c5ccccc45)c(OC)c3)[nH]c(=O)c2c1 | 33.6 | 28.3 | 45.2 | 36.7 |  | 
O=c1[nH]c(-c2ccc(Cc3n[nH]c(=O)c4ccccc34)cc2)nc2ccc(F)cc12 | 16.5 | 14 | 47.2 | 58.2 |  | 
COc1ccc2nc(-c3ccc(Cc4n[nH]c(=O)c5ccccc45)c(F)c3)[nH]c(=O)c2c1 | 25.2 | 19.4 | 51.5 | 39.4 |  | 
O=c1[nH]c(-c2cc(F)cc(Cc3n[nH]c(=O)c4ccccc34)c2)nc2ccc(Cl)cc12 | 15 | 12.3 | 54.5 | 78 |  | 
O=c1[nH]c(-c2ccc(Cc3n[nH]c(=O)c4ccccc34)c(F)c2)nc2ccc(F)cc12 | 22 | 17.2 | 53.3 | 38.2 |  | 
O=c1[nH]nc(Cc2ccc(F)c(-c3nc4cccc(Cl)c4c(=O)[nH]3)c2)c2ccccc12 | 23.3 | 21.6 | 40.9 | 72.8 |  | 
COc1cc(-c2nc3ccc(Cl)cc3c(=O)[nH]2)ccc1Cc1n[nH]c(=O)c2ccccc12 | 30.6 | 35.6 | 45.8 | 37.1 |  | 
COc1cc(OC)c2c(=O)[nH]c(-c3ccc(Cc4n[nH]c(=O)c5ccccc45)cc3)nc2c1 | 17 | 14.1 | 58.2 | 59.2 |  | 
Cc1cccc2nc(-c3cccc(Cc4n[nH]c(=O)c5ccccc45)c3)[nH]c(=O)c12 | 24.6 | 15.4 | 49.6 | 76.3 |  | 
O=c1[nH]c(-c2ccc(Cc3n[nH]c(=O)c4ccccc34)cc2)nc2ccc(Br)cc12 | 24.5 | 18.8 | 46 | 53.3 |  | 
O=c1[nH]c(-c2cc(F)cc(Cc3n[nH]c(=O)c4ccccc34)c2)nc2ccc(F)cc12 | 13.2 | 12.1 | 51.2 | 77.5 |  | 
COc1cc(-c2nc3ccc(F)cc3c(=O)[nH]2)ccc1Cc1n[nH]c(=O)c2ccccc12 | 26 | 31.4 | 41.5 | 36.1 |  | 
Cc1cc(-c2nc3ccc(Br)cc3c(=O)[nH]2)ccc1Cc1n[nH]c(=O)c2ccccc12 | 28.2 | 24.5 | 52.3 | 43.8 |  | 
Cc1cccc2c(=O)[nH]c(-c3cc(Cc4n[nH]c(=O)c5ccccc45)ccc3F)nc12 | 38.2 | 35.6 | 31.2 | 61 |  | 
COc1cc(-c2nc3cccc(Cl)c3c(=O)[nH]2)ccc1Cc1n[nH]c(=O)c2ccccc12 | 35.1 | 34.7 | 43.3 | 33.9 |  | 
Cc1cccc2nc(-c3ccc(Cc4n[nH]c(=O)c5ccccc45)c(F)c3)[nH]c(=O)c12 | > 40 | > 40 | 38.2 | 34.8 |  | 
Cc1cc(-c2nc3ccccc3c(=O)[nH]2)ccc1Cc1n[nH]c(=O)c2ccccc12 | 36 | 28.2 | 42.1 | 46.3 |  | 
O=c1[nH]c(-c2ccc(Cc3n[nH]c(=O)c4ccccc34)cc2)nc2ccccc12 | 25 | 25.4 | 33 | 63.8 |  | 
O=c1[nH]nc(Cc2ccc(-c3nc4cccc(Cl)c4c(=O)[nH]3)cc2F)c2ccccc12 | 22 | 21.2 | 53.4 | 38.5 |  | 
Cc1cc(-c2nc3ccc(F)cc3c(=O)[nH]2)ccc1Cc1n[nH]c(=O)c2ccccc12 | 25.1 | 20.2 | 54.2 | 49.5 |  | 
O=c1[nH]nc(Cc2cccc(-c3nc4cccc(Cl)c4c(=O)[nH]3)c2)c2ccccc12 | 11 | 7.3 | 64.8 | 75.3 |  | 
COc1cc(OC)c2c(=O)[nH]c(-c3cc(F)cc(Cc4n[nH]c(=O)c5ccccc45)c3)nc2c1 | 9.87 | 7.49 | 63.4 | 82.8 |  | 
O=c1[nH]c(-c2cc(Cc3n[nH]c(=O)c4ccccc34)ccc2F)nc2ccc(Cl)cc12 | 21.1 | 20.8 | 42.6 | 68.6 |  | 

Structure (SMILES) | IC50 (MDA-MB-231 [1]) [µM] | IC50 (MDA-MB-468 [2]) [µM] | inhibition [3] [%] | inhibition [4] [%] | Activity (MDA-MB-468 [5]) | Activity (MDA-MB-231 [6])
COc1ccc2nc(-c3cccc(Cc4n[nH]c(=O)c5ccccc45)c3)[nH]c(=O)c2c1 | 8.71 | 5.43 | 61.2 | 78.4 |  | 
O=C(c1cc(Cc2n[nH]c(=O)c3ccccc23)ccc1F)N1CCN(C(=O)C2CC2)CC1 |  |  |  |  | Active | Active
COc1cc(OC)c2nc(-c3ccc(Cc4n[nH]c(=O)c5ccccc45)c(C)c3)[nH]c(=O)c2c1 | 17.9 | 13 | 67.8 | 55 |  | 
O=c1[nH]nc(Cc2ccc(-c3nc4cccc(Cl)c4c(=O)[nH]3)cc2)c2ccccc12 | 21 | 15.4 | 48.9 | 58.5 |  | 
O=c1[nH]c(-c2cc(F)cc(Cc3n[nH]c(=O)c4ccccc34)c2)nc2ccccc12 | 17.7 | 14.2 | 45.5 | 84.5 |  | 
O=c1[nH]c(-c2cc(Cc3n[nH]c(=O)c4ccccc34)ccc2F)nc2ccc(F)cc12 | 18.6 | 19.1 | 43.7 | 68.5 |  | 
COc1cc(OC)c2c(=O)[nH]c(-c3ccc(Cc4n[nH]c(=O)c5ccccc45)c(F)c3)nc2c1 | 28.3 | 25.5 | 63.5 | 35.9 |  | 
O=c1[nH]c(-c2cccc(Cc3n[nH]c(=O)c4ccccc34)c2)nc2ccccc12 | 21.3 | 16.2 | 47.2 | 82.4 |  | 
COc1cc(-c2nc3ccccc3c(=O)[nH]2)ccc1Cc1n[nH]c(=O)c2ccccc12 | > 40 | > 40 | 31.3 | 46.5 |  | 
COc1cc(OC)c2nc(-c3cc(Cc4n[nH]c(=O)c5ccccc45)ccc3F)[nH]c(=O)c2c1 | 22.1 | 18.6 | 47.5 | 72 |  | 
Cc1cccc2nc(-c3ccc(Cc4n[nH]c(=O)c5ccccc45)cc3)[nH]c(=O)c12 | 28.9 | 24.1 | 31.7 | 52.6 |  | 
O=c1[nH]c(-c2cc(Cc3n[nH]c(=O)c4ccccc34)ccc2F)nc2ccccc12 | 31.7 | 29.2 | 31.6 | 59.6 |  | 
COc1cc(-c2nc3cccc(C)c3c(=O)[nH]2)ccc1Cc1n[nH]c(=O)c2ccccc12 | > 40 | > 40 | 34.4 | 37.2 |  | 
COc1ccc2nc(-c3cc(Cc4n[nH]c(=O)c5ccccc45)ccc3F)[nH]c(=O)c2c1 | 22.8 | 24.2 | 41 | 70.7 |  | 
Cc1cc(-c2nc3cccc(C)c3c(=O)[nH]2)ccc1Cc1n[nH]c(=O)c2ccccc12 | > 40 | 29.6 | 36.8 | 47.6 |  | 
COc1ccc2nc(-c3cc(F)cc(Cc4n[nH]c(=O)c5ccccc45)c3)[nH]c(=O)c2c1 | 15.3 | 12.3 | 51.3 | 72.1 |  | 
COc1ccc2nc(-c3ccc(Cc4n[nH]c(=O)c5ccccc45)cc3)[nH]c(=O)c2c1 | 19.1 | 16 | 45.5 | 57.4 |  | 
COc1cc(OC)c2c(=O)[nH]c(-c3cccc(Cc4n[nH]c(=O)c5ccc(Cl)cc45)c3)nc2c1 | 15.5 | 12.8 | 72.2 | 43.2 |  | 
O=c1[nH]c(-c2ccc(Cc3n[nH]c(=O)c4ccccc34)cc2)nc2ccc(Cl)cc12 | 17.1 | 17 | 49.3 | 52.3 |  | 
O=c1[nH]c(-c2cc(Cc3n[nH]c(=O)c4ccccc34)ccc2F)nc2ccc(Br)cc12 | 24.1 | 19.5 | 39.5 | 76.8 |  | 
O=c1[nH]nc(Cc2cc(F)cc(-c3nc4cccc(Cl)c4c(=O)[nH]3)c2)c2ccccc12 | 13.4 | 14.7 | 52.8 | 75.1 |  | 
O=c1[nH]c(-c2ccc(Cc3n[nH]c(=O)c4ccccc34)c(F)c2)nc2ccccc12 | 31.5 | 29.7 | 35.1 | 47.2 |  | 
Cc1cccc2nc(-c3cc(F)cc(Cc4n[nH]c(=O)c5ccccc45)c3)[nH]c(=O)c12 | 15.4 | 15.4 | 47.8 | 76.4 |  | 
O=c1[nH]c(-c2cccc(Cc3n[nH]c(=O)c4ccccc34)c2)nc2ccc(F)cc12 | 9.15 | 6.3 | 64.8 | 74.7 |  | 
